Measured values from article PMC8587043, “An Investigation into the Interaction between Double Hydroxide-Based Antioxidant Benzophenone Derivatives and Cyclooxygenase 2” (Molecules, 2021).
Read-outs that look alike come from different tables or passages of the source.

Assays:
[1] = target: T1, COX2 (Homo sapiens, UniProt P35354); assay: Fluorescence quenching of COX2 (Stern-Volmer, double logarithm, thermodynamic parameters); type: binding; details: for KA relative to the control compound: 298 K and 310 K; for Kq (bimolecular quenching constant): Kq = Ksv/τ0; for Kd: read-out: KA (binding constant) (converted); for ΔH (enthalpy change) / ΔS (entropy change): from KA at 298 K and 310 K
T1 construct: purchased Sino Biological Co. (Beijing, China)
T1 sequence (P35354 18-604): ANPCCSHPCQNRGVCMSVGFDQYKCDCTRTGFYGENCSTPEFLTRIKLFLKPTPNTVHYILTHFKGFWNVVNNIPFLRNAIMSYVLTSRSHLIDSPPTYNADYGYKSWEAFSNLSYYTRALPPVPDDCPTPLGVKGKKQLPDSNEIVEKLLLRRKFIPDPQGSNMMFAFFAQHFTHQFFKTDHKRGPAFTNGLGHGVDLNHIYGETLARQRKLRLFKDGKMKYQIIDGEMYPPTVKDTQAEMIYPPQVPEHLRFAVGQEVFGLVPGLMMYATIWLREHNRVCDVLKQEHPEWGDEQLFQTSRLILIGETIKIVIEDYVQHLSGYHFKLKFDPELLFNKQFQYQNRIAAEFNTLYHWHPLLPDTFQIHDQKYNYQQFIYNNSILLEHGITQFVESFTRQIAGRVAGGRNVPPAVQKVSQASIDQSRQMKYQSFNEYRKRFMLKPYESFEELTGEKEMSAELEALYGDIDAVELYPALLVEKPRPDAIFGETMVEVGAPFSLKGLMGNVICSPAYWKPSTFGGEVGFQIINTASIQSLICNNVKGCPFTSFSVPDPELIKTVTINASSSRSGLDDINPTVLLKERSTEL
Excerpt: The emitted fluorescence spectra of COX2 solution (6.0 × 10^−8 mol∙L^−1) without and with an increasing concentration of compounds DB2, SC2 or YB2 (7.5 × 10^−6 mol∙L^−1 to 4.5 × 10^−5 mol∙L^−1) at different temperatures are shown in Figure 4a,b, Figure 4c,d or Figure 4e,f, respectively. […] The quenching constant Kq and Stern–Volmer constant Ksv at different temperatures are usually used to identify the quenching mechanisms, static or dynamic. The former is caused by ground-state complex formation, the latter is diffusion. For the static quenching mechanism, the quenching constant decreases with temperature increase. In this part, we calculated the Kq and Ksv values by using a universally accepted Stern–Volmer equation [38]:(1) F0/F=1+Kqτ0[Q]=1+Ksv[Q] where F0 and F are the protein fluorescence intensities in the absence and the presence of quencher (compounds DB2, SC2 or YB2), respectively. Kq = Ksv/ τ0 . τ0 is the fluorescence lifetime of the fluorophore without the quencher ([…]). [Q] is the concentration of quencher. The Stern-Volmer plots of COX2 fluorescence quenching by compounds DB2, SC2 or YB2 are presented in Figure 5a, Figure 5b or Figure 5c, respectively. According to Table 1, the Ksv and Kq values for all three systems (COX2-DB2, COX2-SC2 and COX2-YB2) decreased with increasing temperature. Therefore, we considered that the quenching was static quenching. To further verify that the system was static quenching, dynamic quenching was assumed first.
For the static quenching, we can use the double logarithm equation to obtain the binding constant (KA) and the number of binding sites per protein (n):(2) lgF0−F/F=lgKA+nlg[Q]
There are four main kinds of non-covalent forces between drugs and proteins. These are electrostatic force, hydrogen bonding, hydrophobic force and van der Waals force. The kind of interaction between compounds DB2, SC2 or YB2 and COX2 can be obtained from thermodynamic parameters, including the free energy change (ΔG), enthalpy change (ΔH) and entropy change (ΔS) of the reaction. The three thermodynamic parameters can be obtained according to the published equations [42, 44]:(3) ΔG=−RTlnK (4) lnK2/K1=ΔH(1/T1−1/T2)×1/R (5) ΔG=ΔH−TΔS
(§1) The fluorescence intensity of the system was measured with a 1.0 cm quartz cell. COX2 protein was dissolved in PBS for a final concentration of 6.0 × 10^−8 mol∙L^−1. DB2, SC2 or YB2 stock solutions were prepared in singleton at 1.5 × 10^−3 mol∙L^−1 in PBS containing 0.1% DMSO. 2.0 mL COX2 solution was separately titrated by continuing additions of 10 μL compounds DB2, SC2 or YB2 solution). After incubation at 298 K or 310 K, fluorescence quenching spectra were recorded in the region 325-450 nm at a scan rate of 1200 nm∙min^−1. The local environment of Tyr and Trp residues was quite sensitive at 280 nm, so the excitation wavelength was set at this wavelength. Typically, 280 nm is also used to measure the changes in protein tertiary structure. The slit widths of emission and excitation were both fixed at 10 nm. To observe spectra behaviors of Tyr and Trp groups of COX2, the wavelength interval between the excitation and emission wavelengths (Δλ) was set as 15 nm and 60 nm, respectively. Three-dimensional fluorescence spectroscopy was obtained for an excitation range of 200–300 nm and an emission range of 325–400 nm. Appropriate buffer solutions, determined under the same operation conditions, were used as blanks. Each spectrum was recorded three times.

[2] = target: T1, COX2; assay: Fluorescence resonance energy transfer between COX2 and compound; type: binding; details: for J (effective spectral overlap): COX2 emission vs compound absorption, each 5.0 × 10^−8 mol∙L^−1; for r (separation distance between COX2 and compound): κ^2 = 2/3, N = 1.336, φ = 0.15
Excerpt: The transfer of energy from the protein donor to the ligand acceptor is generally seen in strong protein–ligand complexes. In addition to divulging the binding activities, assessments of the energy transfer efficiency can reveal the distance between the ligand and the ligand binding site on the protein [47]. According to Förster theory, the efficiency depends not only on the orientation and distance of the molecules but also on the extent of overlap between the donor emission and acceptor absorption. The distance between the donor and acceptor must be in the 2 to 8 nm range [47, 48]. The overlaps of fluorescence emission spectrum of COX2 with absorption spectrum of compounds DB2, SC2 or YB2 are presented in Figure 5g–i, respectively. The energy transfer efficiency (E) from donor to acceptor was calculated by a widely used method:(6) E=R06/R06+r^6=F0−F/F0 (7) R06=8.79×10^−25κ^2N^−4φJ (8) J=∑^ F(λ)ε(λ)λ^4Δλ/∑^F(λ)Δλ
Here, r is the separation distance between the donor (COX2) and acceptor (DB2, SC2 or YB2). R0 is the Förster critical distance when E = 50%. κ^2 is the orientation space factor. N is the refractive index of medium surrounding the fluorophores. φ is the fluorescence quantum yield of the donor. J is overlap integral of the donor fluorescence emission spectrum and acceptor absorption spectrum. F(λ) is the fluorescence intensity of the protein at the wavelength λ, ε(λ) is the molar absorption coefficient of acceptor at λ. Using the values of κ^2 = 2/3, N = 1.336 and φ = 0.15 [49], J and r were calculated (Table 2).
as §1

Row | Ksv (Stern-Volmer quenching constant) ([1]; 298 K) | n (number of binding sites per protein) ([1]; 298 K) | ΔG (free energy change) ([1]; 298 K) | Kq (bimolecular quenching constant) ([1]; 298 K) | Kd ([1]; 298 K) | Ksv (Stern-Volmer quenching constant) ([1]; 310 K) | n (number of binding sites per protein) ([1]; 310 K) | ΔG (free energy change) ([1]; 310 K) | Kq (bimolecular quenching constant) ([1]; 310 K) | Kd ([1]; 310 K) | ΔH (enthalpy change) [1] | ΔS (entropy change) [1] | J (effective spectral overlap) [2] | r (separation distance between COX2 and compound) [2] | SMILES | KA relative to the control compound [1]
1 | 1.43 ± 0.188 ×10^4 L∙mol^−1 | 1.10 ± 0.0208 | -6.19 ± 0.0669 kcal/mol | 1.43 ± 0.188 ×10^12 L∙mol^−1∙S^−1 | 28.2 µM | 1.14 ± 0.380 ×10^4 L∙mol^−1 | 1.03 ± 0.0633 | -5.88 ± 0.134 kcal/mol | 1.14 ± 0.380 ×10^12 L∙mol^−1∙S^−1 | 73.1 µM | -14.7 ± 1.96 kcal/mol | −120 ± 28.1 J∙K^−1 | 1.64 ×10^−13 cm^3∙L∙mol^−1 | 6.42 nm | CCCCc1ccc(C(=O)c2c(Br)cc(O)c(O)c2O)cc1 [DB2] | approximately an order of magnitude larger
2 | 2.31 ± 0.988 ×10^4 L∙mol^−1 | 1.01 ± 0.0469 | -5.98 ± 0.0547 kcal/mol | 2.31 ± 0.988 ×10^12 L∙mol^−1∙S^−1 | 41.7 µM | 2.07 ± 1.03 ×10^4 L∙mol^−1 | 1.02 ± 0.0731 | -6.14 ± 0.143 kcal/mol | 2.07 ± 1.03 ×10^12 L∙mol^−1∙S^−1 | 45.7 µM | -1.61 ± 2.18 kcal/mol | 61.2 ± 31.3 J∙K^−1 | 1.55 ×10^−13 cm^3∙L∙mol^−1 | 6.62 nm | CC(C)(C)c1ccc(C(=O)c2c(Cl)cc(O)c(O)c2O)cc1 [SC2] | approximately an order of magnitude larger
3 | 3.49 ± 1.69 ×10^4 L∙mol^−1 | 1.07 ± 0.0551 | -6.55 ± 0.0241 kcal/mol | 3.49 ± 1.69 ×10^12 L∙mol^−1∙S^−1 | 15.7 µM | 2.58 ± 0.562 ×10^4 L∙mol^−1 | 1.07 ± 0.0306 | -6.62 ± 0.076 kcal/mol | 2.58 ± 0.562 ×10^12 L∙mol^−1∙S^−1 | 21.5 µM | -4.95 ± 1.55 kcal/mol | 22.6 ± 21.9 J∙K^−1 | 1.72 ×10^−13 cm^3∙L∙mol^−1 | 6.47 nm | CC(C)Cc1ccc(C(=O)c2c(Br)cc(O)c(O)c2O)cc1 [YB2] | approximately an order of magnitude larger
